Assays:
[1] = test system: Staphylococcus aureus (ATCC No. 6538); experiment: USP 51 Preservative Challenge Test, S. aureus; format: cell-based; details: S. aureus ATCC 6538, 82 mg/mL solution in water
Method: (§1) In order to assess the anti-microbial properties of Alpha-1062, the USP (US Pharmacopeia) Chapter 51 Preservative Challenge Test (USP 51) was employed. The USP 51 is a common method used to gauge preservative effectiveness. Much like a Preservative Challenge Screen, it is used to evaluate the effect of preservatives in cosmetics, personal care products, and drug products. Preservatives are typically antimicrobial ingredients that are added to aqueous product formulations to help maintain the safety of the product by inhibiting the growth and reducing the number of microbial contaminants.
(§2) In the context of the present invention, Alpha-1062 (in the form of the gluconate salt) was assessed in place of (as) a preservative. No additional preservative was added to the Alpha-1062 gluconate preparation, rather an anti-microbial effect of the agent itself (Alpha-1062) was assessed. Alpha-1062 is therefore the anti-microbial agent in the assay and experiments described below.
(§3) Cultures of the following microorganisms were applied, as per standard guidelines for USP 51: • Candida albicans (ATCC No. 10231), • Aspergillus brasiliensis (ATCC No. 16404), • Escherichia coli (ATCC No. 8739), • Pseudomonas aeruginosa (ATCC No. 9027), and • Staphylococcus aureus (ATCC No. 6538). […]
(§4) The inoculated containers were incubated at 22.5±2.5° C. and each container was sampled at the appropriate intervals, as specified in Table 3. Any changes observed in the appearance of the culture was recorded at these intervals. By using the plate-count procedure, the number of CFU present in each test preparation was determined for the applicable intervals.
(§5) An inactivator (neutralizer) of the specific antimicrobial was incorporated in the plate count or in the appropriate dilution prepared for plating. These conditions were determined in the validation study for that sample based upon the conditions of media and microbial recovery incubation times listed in Table 2. Using the calculated concentrations of CFU per mL present at the start of the test, the change in log 10 values of the concentration of CFU per mL for each microorganism was calculated at the applicable test intervals, and the changes were expressed in terms of log reductions.
(§6) The requirements for antimicrobial effectiveness are met if the criteria specified under Table 3 are met. No increase is defined as not more than 0.5 log 10 unit higher than the previous value measured. […]
(§7) The USP Criteria for Category 2 were employed in order to determine the presence of an anti-microbial effect. […] For yeast and molds, an antimicrobial effect is evident when no increase from the initial calculated count is determined at 14 and 28 days.

[2] = salts described in WO 2014/016430; cited from earlier work
[3] = test system: Escherichia coli (ATCC No. 8739); experiment: USP 51 Preservative Challenge Test, E. coli; format: cell-based; details: E. coli ATCC 8739, 82 mg/mL solution in water
Method: as §1, §2, §3, §4, §5, §6, §7

[4] = test system: all 5 organisms tested in the USP 51; experiment: USP 51 test, overall assessment against Category 2 criteria; format: cell-based; details: 82 mg/mL solution in water, USP Criteria for Category 2
Method: as §1
In the context of the present invention, Alpha-1062 (in the form of the gluconate salt) was assessed in place of (as) a preservative. No additional preservative was added to the Alpha-1062 gluconate preparation, rather an anti-microbial effect of the agent itself (Alpha-1062) was assessed. […]
as §6, §7

[5] = test system: Pseudomonas aeruginosa (ATCC No. 9027); experiment: USP 51 Preservative Challenge Test, P. aeruginosa; format: cell-based; details: P. aeruginosa ATCC 9027, 82 mg/mL solution in water
Method: as §1, §2, §3, §4, §5, §6, §7

[6] = test system: Candida albicans (ATCC No. 10231); experiment: USP 51 Preservative Challenge Test, C. albicans; format: cell-based; details: C. albicans ATCC 10231, 82 mg/mL solution in water
Method: as §1, §2, §3, §4, §5, §6, §7

[7] = test system: Aspergillus brasiliensis (ATCC No. 16404); experiment: USP 51 Preservative Challenge Test, A. brasiliensis; format: cell-based; details: A. brasiliensis ATCC 16404, 82 mg/mL solution in water
Method: as §1, §2, §3, §4, §5, §6, §7

[8] = Day 14, log10 reduction from initial count
[9] = Day 28, log10 reduction from initial count

With `COc1ccc2c3c1O[C@H]1C[C@@H](OC(=O)c4ccccc4)C=C[C@@]31CCN(C)C2` [Alpha-1062 Gluconate] the “CFU/mL Day 14” value ([1]; Day 14, initial 4.0 × 10^5 CFU/mL) was <10 CFU/mL, the “Log Reduction Day 14” value [1, 8] was 4.6 and the “CFU/mL Day 28” value ([1]; Day 28, initial 4.0 × 10^5 CFU/mL) was <10 CFU/mL. For the same molecule, the “Log Reduction Day 28” value [1, 9] was 4.6, the solubility in water [2] was “above 10 % weight per volume (w/v)” and the “CFU/mL Day 14” value ([3]; Day 14, 22.5±2.5° C., initial 9.1 × 10^5 CFU/mL) was <10 CFU/mL. For the same molecule, the “Log Reduction Day 14” value [3, 8] was 5.0, the “CFU/mL Day 28” value ([3]; Day 28, initial 9.1 × 10^5 CFU/mL) was <10 CFU/mL and the “Log Reduction Day 28” value [3, 9] was 5.0. The “anti-microbial effect in the USP 51” value [4] was “strong anti-microbial effect”, the “CFU/mL Day 14” value ([5]; Day 14, initial 2.9 × 10^5 CFU/mL) was <10 CFU/mL and the “Log Reduction Day 14” value [5, 8] was 4.5. For the same molecule, the “CFU/mL Day 28” value ([5]; Day 28, initial 2.9 × 10^5 CFU/mL) was <10 CFU/mL, the “Log Reduction Day 28” value [5, 9] was 4.5 and the “CFU/mL Day 14” value ([6]; Day 14, initial 6.7 × 10^5 CFU/mL) was <10 CFU/mL. For the same molecule, the “Log Reduction Day 14” value [6, 8] was 4.8, the “CFU/mL Day 28” value ([6]; Day 28, initial 6.7 × 10^5 CFU/mL) was <10 CFU/mL and the “Log Reduction Day 28” value [6, 9] was 4.8. For the same molecule, the “CFU/mL Day 14” value ([7]; Day 14, initial 2.2 × 10^5 CFU/mL) was 1.6 × 10^2 CFU/mL, the “Log Reduction Day 14” value [7, 8] was 3.1 and the “CFU/mL Day 28” value ([7]; Day 28, initial 2.2 × 10^5 CFU/mL) was 1.5 × 10^2 CFU/mL. The “Log Reduction Day 28” value [7, 9] was 3.1.

Source: patent US20240252509A1, “SELF-PRESERVING COMPOSITIONS AND MULTI-USE DISPENSERS FOR ADMINISTERING ALPHA-1062” (priority 2021, published 2024)
